Test results from patent US20170105953A1, “METHOD FOR SUPPRESSING DIABETES AND/OR HEPATIC LIPIDS USING TORMENTIC ACID” (priority 2015, published 2017).

Tests used:
Format in all cases: in vivo, C57BL/6J mice
Akt = assay: western blot, phospho-Akt (Ser473)/total-Akt in skeletal muscle; conditions: HF diet-fed mice
Description: (§1) FIG. 4A is a western blot analysis showing the protein contents of GLUT4 in skeletal muscle, and phospho-AMPK (Thr172) and total-AMPK (Thr172) in both liver tissue and skeletal muscle, and phospho-Akt (Ser473) and total-Akt (Ser473) in skeletal muscle of the mice receiving tormentic acid (PTA) by oral gavage for 4 weeks; and
(§2) FIG. 4B is a diagram showing the protein contents of GLUT4 in skeletal muscle, the expression levels of phospho-AMPK (Thr172) to total AMPK in both liver tissue and skeletal muscle, and quantified results from FIG. 4A for the phosphorylation status of Akt (p-Akt normalized to total Akt (pAkt/Akt)) in skeletal muscle of the mice receiving tormentic acid (PTA) by oral gavage for 4 weeks.
(§3) For part 2, C57BL/6J mice (4 weeks old) were obtained from the National Laboratory Animal Breeding and Research Center. The mice were divided randomly into two groups after 7 days acclimation. The control (CON) group (n=9) was fed a low-fat diet (diet 12450B, Research Diets, Inc., New Brunswick, N.J., USA), whereas the experimental group was fed a 45% high-fat diet (diet 12451, Research Diets, Inc.) for 12 weeks. The compositions of the experimental diets are given in previous studies. […]

AMPK = assay: western blot, phospho-AMPK (Thr172)/total-AMPK in liver tissue and skeletal muscle; conditions: HF diet-fed mice
Description: as §1, §2
For part 2, C57BL/6J mice (4 weeks old) were obtained from the National Laboratory Animal Breeding and Research Center. The mice were divided randomly into two groups after 7 days acclimation. The control (CON) group (n=9) was fed a low-fat diet (diet 12450B, Research Diets, Inc., New Brunswick, N.J., USA), whereas the experimental group was fed a 45% high-fat diet (diet 12451, Research Diets, Inc.) for 12 weeks. The compositions of the experimental diets are given in previous studies. After 8 weeks, the high-fat treated mice were randomly subdivided into four groups (n=9) including PTA1 (0.06 g/kg/day), PTA2 (0.12 g/kg/day) or rosiglitazone (Rosi; 1% methylcellulose, 10 mg/kg body weight) (GlaxoSmithKline) or vehicle and treated by oral gavage one time per day from the 9th to 12th weeks, while the mice were still on the high-fat diet, whereas the CON and high-fat control (HF) mice were treated with vehicle only. At the end, food was withheld from the animals (from 10 p.m. to 10 a.m.). The next day, the mice were sacrificed for blood and tissue collection and analysis. Livers, skeletal muscles, and white adipose tissues (WATs) (including epididymal, mesenteric, and retroperitoneal WAT) were weighed and excised, followed by immediate freezing, and kept at −80° C. for target gene analysis. Heparin (30 units/mL) (Sigma) was added to blood samples. Plasma samples were collected within 30 min by centrifugation at 1600 g for 15 min at 4° C. Plasma was obtained for insulin and leptin assay.

apo C-III = assay: semiquantitative RT-PCR, liver apo C-III mRNA; conditions: HF diet-fed mice, normalized to GAPDH, vs HF group
Description: as §3
Total RNA from the liver tissue was isolated with a Trizol reagent (Molecular Research Center, Inc., Cincinnati, Ohio, USA) according to the manufacturer's directions. The integrity of the extracted total RNA was examined by 2% agarose gel electrophoresis, and the RNA concentration was determined by ultraviolet (UV) light absorbency at 260 and 280 nm (spectrophotometer U-2800A, Hitachi). […] The relative density of the band was evaluated using AlphaDigiDoc 1201 software (Alpha Innotech Co., San Leandro, Calif., USA). All of the measured PCR products were normalized to the amount of cDNA of GAPDH in each sample. […]

Question: For `C[C@@H]1CC[C@]2(C(=O)O)CC[C@]3(C)C(=CC[C@@H]4[C@@]5(C)C[C@@H](O)[C@H](O)C(C)(C)[C@@H]5CC[C@]43C)[C@@H]2[C@]1(C)O` [PTA, tormentic acid], which “expression levels of phospho-Akt/total-Akt” value (Akt; PTA1 0.06 g/kg/day 4 weeks) is on record?
Answer: significantly increased

Question: And the “expression levels of phospho-Akt/total-Akt” value (Akt; PTA2 0.12 g/kg/day 4 weeks)?
Answer: significantly increased

Question: What about the “expression levels of phospho-AMPK/total-AMPK” value (AMPK; liver tissue, PTA1 0.06 g/kg/day 4 weeks) of the same compound?
Answer: significantly increase

Question: What about the “expression levels of phospho-AMPK/total-AMPK” value (AMPK; liver tissue, PTA2 0.12 g/kg/day 4 weeks) of the same compound?
Answer: significantly increase

Question: What about the “expression levels of phospho-AMPK/total-AMPK” value (AMPK; skeletal muscle, PTA1 0.06 g/kg/day 4 weeks) of the same compound?
Answer: significantly increase

Question: What about the “expression levels of phospho-AMPK/total-AMPK” value (AMPK; skeletal muscle, PTA2 0.12 g/kg/day 4 weeks) of the same compound?
Answer: significantly increase

Question: What about the “mRNA level of apo C-III in liver” value (apo C-III; PTA1 0.06 g/kg/day 4 weeks) of the same compound?
Answer: significantly decrease

Question: What about the “mRNA level of apo C-III in liver” value (apo C-III; PTA2 0.12 g/kg/day 4 weeks) of the same compound?
Answer: significantly decrease
